According to US8642548B2 (Mannkind Corporation, priority 2009, dated 2014):

Assay: Phase 1a trial of GLP-1/FDKP inhalation powder: insulin, glucose, gastric emptying
Assay type: in vivo, human

CC[C@H](C)[C@H](NC(=O)[C@H](Cc1ccccc1)NC(=O)[C@H](CCC(=O)O)NC(=O)[C@H](CCCCN)NC(=O)[C@H](C)NC(=O)[C@H](C)NC(=O)[C@H](CCC(N)=O)NC(=O)CNC(=O)[C@H](CCC(=O)O)NC(=O)[C@H](CC(C)C)NC(=O)[C@H](Cc1ccc(O)cc1)NC(=O)[C@H](CO)NC(=O)[C@H](CO)NC(=O)[C@@H](NC(=O)[C@H](CC(=O)O)NC(=O)[C@H](CO)NC(=O)[C@@H](NC(=O)[C@H](Cc1ccccc1)NC(=O)[C@@H](NC(=O)CNC(=O)[C@H](CCC(=O)O)NC(=O)[C@H](C)NC(=O)[C@@H](N)Cc1c[nH]cn1)[C@@H](C)O)[C@@H](C)O)C(C)C)C(=O)N[C@@H](C)C(=O)N[C@@H](Cc1c[nH]c2ccccc12)C(=O)N[C@@H](CC(C)C)C(=O)N[C@H](C(=O)N[C@@H](CCCCN)C(=O)NCC(=O)N[C@@H](CCCNC(=N)N)C(N)=O)C(C)C [GLP-1, glucagon-like peptide 1]
mean fasting plasma glucose (1.5 mg GLP-1 inhaled, 20 min after dosing, from 85 mg/dL): 70 mg/dL
inhibition of gastric emptying (pulmonary administration, dry powder, data not shown): lack inhibition of gastric emptying
